Results as given in ChEMBL document CHEMBL3272271, “Folate antagonists. 13. 2,4-Diamino-6-](alpha,alpha,alpha-trifluoro-m-tolyl)thio]quinazoline and related 2,4-diamino-6-[(phenyl- and naphthyl)thio]quinazolines, a unique class of antimetabolites with extraordinary antimalarial and antibacterial effects” (J Med Chem, 1978).
Converted amounts (≈) assume the structure as drawn. The source made the active and inactive calls. No cut-off for these calls is given here.

How the values were obtained:
[1] = system: Plasmodium berghei; assay: Antimalarial activity against Plasmodium berghei infected in mouse assessed as increase in mean survival days of host at 20 mg/kg, sc administered 72 hrs after infection relative to control; type: functional; conditions: route subcutaneous
[2] = system: Plasmodium gallinaceum; assay: Antimalarial activity against trophozoite-induced Plasmodium gallinaceum infected in white leghorn chicken assessed as increase in mean survival days of host at 80 mg/kg, sc administered 72 hrs after infection relative to control; type: functional; conditions: route subcutaneous
[3] = system: Plasmodium berghei; assay: Antimalarial activity against Plasmodium berghei infected in mouse assessed as disease cure from parasite infection at 320 mg/kg, sc administered 72 hrs after infection; type: functional, organism-based; design: dose 320 mg/kg
[4] = system: Mus musculus; assay: Toxicity in Plasmodium berghei infected mouse assessed as mortality at 640 mg/kg, sc administered 72 hrs after infection measured after 2 to 5 days; type: organism-based; design: dose 640 mg/kg, route subcutaneous; conditions: in vivo
[5] = system: Plasmodium gallinaceum; assay: Antimalarial activity against trophozoite-induced Plasmodium gallinaceum infected in white leghorn chicken assessed as increase in mean survival days of host at 320 mg/kg, sc administered 72 hrs after infection relative to control; type: functional; conditions: route subcutaneous
[6] = system: Plasmodium gallinaceum; assay: Antimalarial activity against trophozoite-induced Plasmodium gallinaceum infected in white leghorn chicken assessed as increase in mean survival days of host at 40 mg/kg, sc administered 72 hrs after infection relative to control; type: functional; conditions: route subcutaneous
[7] = system: Plasmodium berghei; assay: Antimalarial activity against Plasmodium berghei infected in mouse assessed as increase in mean survival days of host at 2.5 mg/kg, sc administered 72 hrs after infection relative to control; type: functional; conditions: route subcutaneous
[8] = system: Plasmodium berghei; assay: Antimalarial activity against Plasmodium berghei infected in mouse assessed as disease cure from parasite infection at 160 mg/kg, sc administered 72 hrs after infection; type: functional, organism-based; design: dose 160 mg/kg
[9] = system: Plasmodium berghei; assay: Antimalarial activity against Plasmodium berghei infected in mouse assessed as disease cure from parasite infection at 40 mg/kg, sc administered 72 hrs after infection; type: functional, organism-based; design: dose 40 mg/kg
[10] = system: Plasmodium gallinaceum; assay: Antimalarial activity against trophozoite-induced Plasmodium gallinaceum infected in white leghorn chicken assessed as disease cure from parasite infection at 320 mg/kg, sc administered 72 hrs after infection; type: functional, organism-based; design: dose 320 mg/kg
[11] = system: Plasmodium berghei; assay: Ratio of quinine hydrochloride SD90 to compound SD90 for trophozoite-induced Plasmodium berghei infected in mouse assessed as daily dose required to suppression of 90% parasite infection administered with diet for 6 days; type: functional
[12] = system: Plasmodium berghei; assay: Antimalarial activity against Plasmodium berghei infected in mouse assessed as increase in mean survival days of host at 10 mg/kg, sc administered 72 hrs after infection relative to control; type: functional; conditions: route subcutaneous
[13] = system: Staphylococcus aureus; assay: Antibacterial activity against drug-resistant Staphylococcus aureus S18713 by gradient plate test; type: functional
[14] = system: Plasmodium berghei; assay: Antimalarial activity against trophozoite-induced Plasmodium berghei infected in mouse assessed as daily dose required to suppression of 90% parasite infection administered with diet for 6 days; type: functional
[15] = system: Plasmodium berghei; assay: Antimalarial activity against Plasmodium berghei infected in mouse assessed as disease cure from parasite infection at 640 mg/kg, sc administered 72 hrs after infection; type: functional, organism-based; design: dose 640 mg/kg
[16] = system: Plasmodium gallinaceum; assay: Antimalarial activity against trophozoite-induced Plasmodium gallinaceum infected in white leghorn chicken assessed as increase in mean survival days of host at 1.25 mg/kg, sc administered 72 hrs after infection relative to control; type: functional; conditions: route subcutaneous
[17] = system: Plasmodium berghei; assay: Antimalarial activity against Plasmodium berghei infected in mouse assessed as increase in mean survival days of host at 1.25 mg/kg, sc administered 72 hrs after infection relative to control; type: functional; conditions: route subcutaneous
[18] = system: Plasmodium berghei; assay: Antimalarial activity against Plasmodium berghei infected in mouse assessed as increase in mean survival days of host at 5 mg/kg, sc administered 72 hrs after infection relative to control; type: functional; conditions: route subcutaneous
[19] = system: Plasmodium gallinaceum; assay: Antimalarial activity against trophozoite-induced Plasmodium gallinaceum infected in white leghorn chicken assessed as increase in mean survival days of host at 160 mg/kg, sc administered 72 hrs after infection relative to control; type: functional; conditions: route subcutaneous
[20] = system: Shigella sonnei; assay: Antibacterial activity against Shigella sonnei C-10 by gradient plate test; type: functional
[21] = system: Plasmodium gallinaceum; assay: Antimalarial activity against trophozoite-induced Plasmodium gallinaceum infected in white leghorn chicken assessed as disease cure from parasite infection at 160 mg/kg, sc administered 72 hrs after infection; type: functional, organism-based; design: dose 160 mg/kg
[22] = system: Plasmodium berghei; assay: Antimalarial activity against Plasmodium berghei infected in mouse assessed as disease cure from parasite infection at 80 mg/kg, sc administered 72 hrs after infection; type: functional, organism-based; design: dose 80 mg/kg
[23] = system: Plasmodium gallinaceum; assay: Antimalarial activity against trophozoite-induced Plasmodium gallinaceum infected in white leghorn chicken assessed as increase in mean survival days of host at 10 mg/kg, sc administered 72 hrs after infection relative to control; type: functional; conditions: route subcutaneous
[24] = system: Plasmodium gallinaceum; assay: Antimalarial activity against trophozoite-induced Plasmodium gallinaceum infected in white leghorn chicken assessed as increase in mean survival days of host at 20 mg/kg, sc administered 72 hrs after infection relative to control; type: functional; conditions: route subcutaneous
[25] = system: Pseudomonas aeruginosa; assay: Antibacterial activity against Pseudomonas aeruginosa 28 by gradient plate test; type: functional
[26] = system: Plasmodium berghei; assay: Antimalarial activity against Plasmodium berghei infected in mouse assessed as increase in mean survival days of host at 40 mg/kg, sc administered 72 hrs after infection relative to control; type: functional; conditions: route subcutaneous
[27] = system: Escherichia coli; assay: Antibacterial activity against Escherichia coli Vogel by gradient plate test; type: functional
[28] = system: Staphylococcus aureus; assay: Antibacterial activity against Staphylococcus aureus UC-96 by gradient plate test; type: functional
[29] = system: Plasmodium gallinaceum; assay: Antimalarial activity against trophozoite-induced Plasmodium gallinaceum infected in white leghorn chicken assessed as increase in mean survival days of host at 2.5 mg/kg, sc administered 72 hrs after infection relative to control; type: functional; conditions: route subcutaneous
[30] = system: Enterococcus faecalis; assay: Antibacterial activity against Streptococcus faecalis MGH-2 by gradient plate test; type: functional
[31] = system: Plasmodium gallinaceum; assay: Antimalarial activity against trophozoite-induced Plasmodium gallinaceum infected in white leghorn chicken assessed as increase in mean survival days of host at 5 mg/kg, sc administered 72 hrs after infection relative to control; type: functional; conditions: route subcutaneous
[32] = system: Plasmodium gallinaceum; assay: Antimalarial activity against trophozoite-induced Plasmodium gallinaceum infected in white leghorn chicken assessed as increase in mean survival days of host at 0.63 mg/kg, sc administered 72 hrs after infection relative to control; type: functional; conditions: route subcutaneous
[33] = system: Plasmodium berghei; assay: Antimalarial activity against Plasmodium berghei infected in mouse assessed as increase in mean survival days of host at 80 mg/kg, sc administered 72 hrs after infection relative to control; type: functional; conditions: route subcutaneous
[34] = system: Mycobacterium tuberculosis; assay: Antibacterial activity against Mycobacterium tuberculosis H37Ra by gradient plate test; type: functional
[35] = system: Plasmodium gallinaceum; assay: Antimalarial activity against sporozoite-induced Plasmodium gallinaceum infected in white leghorn chicken assessed as increase in mean survival days of host at 15 mg/kg, sc administered 72 hrs after infection relative to control; type: functional; conditions: route subcutaneous
[36] = system: Plasmodium gallinaceum; assay: Antimalarial activity against sporozoite-induced Plasmodium gallinaceum infected in white leghorn chicken assessed as disease cure from parasite infection at 240 mg/kg, sc administered 72 hrs after infection; type: functional, organism-based; design: dose 240 mg/kg
[37] = system: Plasmodium gallinaceum; assay: Antimalarial activity against sporozoite-induced Plasmodium gallinaceum infected in white leghorn chicken assessed as disease cure from parasite infection at 15 mg/kg, sc administered 72 hrs after infection; type: functional, organism-based; design: dose 15 mg/kg
[38] = system: Plasmodium gallinaceum; assay: Antimalarial activity against sporozoite-induced Plasmodium gallinaceum infected in white leghorn chicken assessed as disease cure from parasite infection at 480 mg/kg, sc administered 72 hrs after infection; type: functional, organism-based; design: dose 480 mg/kg
[39] = system: Plasmodium gallinaceum; assay: Antimalarial activity against sporozoite-induced Plasmodium gallinaceum infected in white leghorn chicken assessed as disease cure from parasite infection at 60 mg/kg, sc administered 72 hrs after infection; type: functional, organism-based; design: dose 60 mg/kg
[40] = system: Plasmodium gallinaceum; assay: Antimalarial activity against sporozoite-induced Plasmodium gallinaceum infected in white leghorn chicken assessed as disease cure from parasite infection at 30 mg/kg, sc administered 72 hrs after infection; type: functional, organism-based; design: dose 30 mg/kg
[41] = system: Plasmodium berghei; assay: Antimalarial activity against Plasmodium berghei infected in mouse assessed as increase in mean survival days of host at 160 mg/kg, sc administered 72 hrs after infection relative to control; type: functional; conditions: route subcutaneous
[42] = system: Plasmodium gallinaceum; assay: Antimalarial activity against sporozoite-induced Plasmodium gallinaceum infected in white leghorn chicken assessed as disease cure from parasite infection at 120 mg/kg, sc administered 72 hrs after infection; type: functional, organism-based; design: dose 120 mg/kg
[43] = system: Plasmodium gallinaceum; assay: Antimalarial activity against sporozoite-induced Plasmodium gallinaceum infected in white leghorn chicken assessed as increase in mean survival days of host at 30 mg/kg, sc administered 72 hrs after infection relative to control; type: functional; conditions: route subcutaneous
[44] = system: Gallus gallus; assay: Toxicity in sporozoite-induced Plasmodium gallinaceum infected white leghorn chicken assessed as mortality at 480 mg/kg, sc administered 72 hrs after infection measured up to 6 days; type: organism-based; design: dose 480 mg/kg, route subcutaneous; conditions: in vivo

SMILES	MST [1] [days]	Activity [3]	MST [7] [days]	Activity [8]	MST [12] [days]	MIC [13] [µg/mL]	Activity [15]	MST [18] [days]	MIC [20] [µg/mL]	Activity [22]	MST [23] [days]	MST [24] [days]	MIC [25] [µg/mL]	MST [26] [days]	MIC [27] [µg/mL]	MIC [28] [µg/mL]	MIC [30] [µg/mL]	MST [33] [days]	MIC [34] [µg/mL]	Activity [36]	other results
Cc1ccccc1Sc1ccc2nc(N)nc(N)c2c1	10.5	Active	5.5	Active	9.9	< 0.25	Active	7.3	1 (≈ 3.54 µM)	Active	6.6	7.6	> 25	17	< 0.25	< 0.25	< 0.25				MST [2]: 12 days; Activity [4]: Toxic; MST [5]: 16 days; MST [6]: 11 days; Activity [9]: Active; Activity [10]: Active; Ratio [11]: 18; SD90 [14]: 4.1 mg/kg/day; MST [16]: 0 days; MST [17]: 1.1 days; MST [19]: 17 days; Activity [21]: Active; MST [29]: 0 days; MST [31]: 2.4 days; MST [32]: 0 days
Nc1nc(N)c2cc(Sc3ccc(O)cc3)ccc2n1	6.3	Active		Active	2.9	< 0.25	Active		15 (≈ 52.8 µM)	Active			20 (≈ 70.3 µM)	11.9	2.5 (≈ 8.79 µM)	< 0.25	< 0.25	10.9	> 25	Active	MST [35]: 4.7 days; Activity [37]: Active; Activity [38]: Active; Activity [39]: Active; Activity [40]: Active; MST [41]: 13.6 days; Activity [42]: Active
Nc1nc(N)c2cc(Sc3c(F)c(F)cc(F)c3F)ccc2n1	2.7	Active	0.3	Active	0.5	< 0.25	Active	0.3	15 (≈ 44.1 µM)	Active			> 25	6.1	2 (≈ 5.88 µM)	< 0.25	< 0.25	8.9		Active	MST [35]: 1.7 days; MST [43]: 2.7 days; Activity [37]: Active; Activity [38]: Active; Activity [39]: Active; Activity [40]: Active; MST [41]: 14.9 days; Activity [42]: Active
Nc1nc(N)c2cc(Sc3cccc4ccccc34)ccc2n1	10.7	Active	1.1	Active	7.9	5 (≈ 15.7 µM)	Active	1.9	20 (≈ 62.8 µM)	Active	12.4	17.4	> 25	14.5	15 (≈ 47.1 µM)	2.5 (≈ 7.85 µM)	10 (≈ 31.4 µM)	18.4	> 25		MST [16]: 7.2 days; MST [17]: 0.5 days; MST [29]: 9 days; MST [31]: 11.8 days; MST [32]: 2.2 days
Nc1nc(N)c2c(Cl)c(Sc3ccc(F)cc3)ccc2n1	6.9	Active		Active		< 0.25	Active		< 0.25	Active			> 25	15.6	< 0.25	< 0.25	< 0.25		5 (≈ 15.6 µM)		Activity [4]: Toxic; Activity [9]: Active
Cc1ccc(Sc2ccc3nc(N)nc(N)c3c2)cc1	3.9	Active		Active	2.5	< 0.25	Active		0.5 (≈ 1.77 µM)	Active	4.6	7.6	> 25	7.1	< 0.25	< 0.25	< 0.25	9.7		Active	MST [2]: 15.2 days; MST [5]: 20 days; MST [6]: 10.4 days; Activity [10]: Active; Ratio [11]: 10; SD90 [14]: 7.2 mg/kg/day; Activity [38]: Active; Activity [44]: Toxic; MST [19]: 22.2 days; Activity [39]: Active; Activity [42]: Active
